# Assay results from patent publication US12582641B2, “Sulfur-containing compound based on glutarimide skeleton and application thereof” (SHANGHAITECH UNIVERSITY, priority 2019, dated 2026).
# System: MM.1S cells
# Experiment: Proliferation inhibition (IC50) in MM.1S cells, cell viability assay
# Details: Homo sapiens, MM1.S, 72 h, read-out: IC50 (nM), proliferation inhibitory activity of MM.1S cells (half inhibitory concentration)
row,SMILES,IC50 [nM]
1,"O=C1CCC(N2Cc3c(SCCCCCCCNC4CCCCC4)cccc3C2=O)C(=O)N1 (centres unmarked) [SIAIS1220185, 3-(4-((7-(cyclohexylamino)heptyl)thio)-1-oxoisoindolin-2-yl)piperidine-2,6-dione]",0.026 ± 0.007
2,"O=C1CCC(N2Cc3c(SCCCCCCCN4CCCCCCC4)cccc3C2=O)C(=O)N1 (centres unmarked) [SIAIS1220193, 3-(4-((7-(azocan-1-yl)heptyl)thio)-1-oxoisoindolin-2-yl)piperidine-2,6-dione]",0.03 ± 0.01
3,"CC12CC3CC(C)(C1)CC(NC(=O)CCCCCCSc1cccc4c1CN(C1CCC(=O)NC1=O)C4=O)(C3)C2 (centres unmarked) [SIAIS1220197, N-(3,5-dimethyladamantan-1-yl)-7-((2-(2,6-dioxopiperidin-3-yl)-1-oxoisoindolin-4-yl)thio)heptanamide]",0.578
4,"O=C1CCC(N2Cc3c(SCCCCCCC(=O)NC4C5CC6CC(C5)CC4C6)cccc3C2=O)C(=O)N1 (centres unmarked) [SIAIS1220199, N-(adamantan-2-yl)-7-((2-(2,6-dioxopiperidin-3-yl)-1-oxoisoindolin-4-yl)thio)heptanamide]",0.026 ± 0.001
5,"O=C1CCC(N2Cc3c(SCCCCCCNCC45CC6CC(CC(C6)C4)C5)cccc3C2=O)C(=O)N1 (centres unmarked) [SIAIS1221013, 3-(4-((6-((adamantan-1-ylmethyl)amino)hexyl)thio)-1-oxoisoindolin-2-yl)piperidine-2,6-dione]",0.028 ± 0.012
6,"O=C1CCC(N2Cc3c(SCCCCCCCN4CCC5(CCCCC5)CC4)cccc3C2=O)C(=O)N1 (centres unmarked) [SIAIS1221015, 3-(4-((7-(3-azaspiro[5.5]undecan-3-yl)heptyl)thio)-1-oxoisoindolin-2-yl)piperidine-2,6-dione]",0.04 ± 0.01
7,"CC1CC(C)CN(CCCCCCCSc2cccc3c2CN(C2CCC(=O)NC2=O)C3=O)C1 (centres unmarked) [SIAIS1221021, 3-(4-((7-(3,5-dimethylpiperidin-1-yl)heptyl)thio)-1-oxoisoindolin-2-yl)piperidine-2,6-dione]",0.047 ± 0.001
8,"O=C1CCC(N2Cc3c(SCCCCCCCSC45CC6CC(CC(C6)C4)C5)cccc3C2=O)C(=O)N1 (centres unmarked) [SIAIS1221025, 3-(4-((7-(adamantan-1-ylthio)heptyl)thio)-1-oxoisoindolin-2-yl)piperidine-2,6-dione]",0.061
9,"CC1(C)CCN(CCCCCCCSc2cccc3c2CN(C2CCC(=O)NC2=O)C3=O)CC1 (centres unmarked) [SIAIS1221027, 3-(4-((7-(4,4-dimethylpiperidin-1-yl)heptyl)thio)-1-oxoisoindolin-2-yl)piperidine-2,6-dione]",0.038 ± 0.006
10,"O=C1CCC(N2C(=O)c3cccc(SCCCCCCCN4CCCCC4)c3C2=O)C(=O)N1 (centres unmarked) [SIAIS1221033, 2-(2,6-dioxopiperidin-3-yl)-4-((7-(piperidin-1-yl)heptyl)thio)isoindoline-1,3-dione]",1.62
11,"O=C1CCC(N2C(=O)c3ccc(SCCCCCCCNC45CC6CC(CC(C6)C4)C5)cc3C2=O)C(=O)N1 (centres unmarked) [SIAIS1221075, 5-((7-((adamantan-1-yl)amino)heptyl)thio)-2-(2,6-dioxopiperidin-3-yl)isoindoline-1,3-dione]",15.8
12,"CC1(C)[C@@H]2CC[C@@]1(C)[C@@H](NCCCCCCSc1cccc3c1CN(C1CCC(=O)NC1=O)C3=O)C2 (stereo partly drawn) [SIAIS1221115, 3-(1-oxo-4-((6-(((1R,2S,4R)-1,7,7-trimethylbicyclo[2.2.1]heptan-2-yl)amino)hexyl)thio)isoindolin-2-yl)piperidine-2,6-dione]",0.082
13,"O=C1CCC(N2Cc3c(SCCCCCNC45CC6CC(CC(C6)C4)C5)cccc3C2=O)C(=O)N1 (centres unmarked) [SIAIS1221117, 3-(4-((5-((adamantan-1-yl)amino)pentyl)thio)-1-oxoisoindolin-2-yl)piperidine-2,6-dione]",0.06
14,"O=C1CCC(N2Cc3c(SCCCCCCN4CCC5(CCCCC5)CC4)cccc3C2=O)C(=O)N1 (centres unmarked) [SIAIS1221121, 3-(4-((6-(3-azaspiro[5.5]undecan-3-yl)hexyl)thio)-1-oxoisoindolin-2-yl)piperidine-2,6-dione]",0.057
15,"O=C1CCC(N2Cc3c(SCCCCCN4CCC5(CCCCC5)CC4)cccc3C2=O)C(=O)N1 (centres unmarked) [SIAIS1221123, 3-(4-((5-(3-azaspiro[5.5]undecan-3-yl)pentyl)thio)-1-oxoisoindolin-2-yl)piperidine-2,6-dione]",0.051
16,"CN(CCCCCCCSc1cccc2c1CN(C1CCC(=O)NC1=O)C2=O)C1CCC(C)(C)CC1 (centres unmarked) [SIAIS1221125, 3-(4-((7-((4,4-dimethylcyclohexyl)(methyl)amino)heptyl)thio)-1-oxoisoindolin-2-yl)piperidine-2,6-dione]",0.035

# The next lines start with the values.
row,IC50 [nM],SMILES
1,0.598,"O=C1CCC(N2Cc3c(SCCCCCCCNc4ccccc4)cccc3C2=O)C(=O)N1 (centres unmarked) [SIAIS1220187, 3-(1-oxo-4-((7-(phenylamino)heptyl)thio)isoindolin-2-yl)piperidine-2,6-dione]"
2,0.553,"CN(CCCCCCCSc1cccc2c1CN(C1CCC(=O)NC1=O)C2=O)c1ccccc1 (centres unmarked) [SIAIS1220189, 3-(4-((7-(methyl(phenyl)amino)heptyl)thio)-1-oxoisoindolin-2-yl)piperidine-2,6-dione]"
3,0.048,"O=C1CCC(N2Cc3c(SCCCCCCC(=O)NC45CC6CC(CC(C6)C4)C5)cccc3C2=O)C(=O)N1 (centres unmarked) [SIAIS1220195, N-(adamantan-1-yl)-7-((2-(2,6-dioxopiperidin-3-yl)-1-oxoisoindolin-4-yl)thio)heptanamide]"
4,0.024 ± 0.01,"O=C1CCC(N2Cc3c(SCc4ccc(CNC56CC7CC(CC(C7)C5)C6)cc4)cccc3C2=O)C(=O)N1 (centres unmarked) [SIAIS1221003, 3-(4-((4-(((adamantan-1-yl)amino)methyl)benzyl)thio)-1-oxoisoindolin-2-yl)piperidine-2,6-dione]"
5,0.035 ± 0.007,"O=C1CCC(N2Cc3c(SCc4ccc(CNC5C6CC7CC(C6)CC5C7)cc4)cccc3C2=O)C(=O)N1 (centres unmarked) [SIAIS1221005, 3-(4-((4-((adamantan-2-ylamino)methyl)benzyl)thio)-1-oxoisoindolin-2-yl)piperidine-2,6-dione]"
6,0.007,"CC1(C)[C@@H]2CC[C@@]1(C)[C@@H](NCCCCCCCSc1cccc3c1CN(C1CCC(=O)NC1=O)C3=O)C2 (stereo partly drawn) [SIAIS1221019, 3-(1-oxo-4-((7-(((1R,2S,4R)-1,7,7-trimethylbicyclo[2.2.1]heptan-2-yl)amino)heptyl)thio)isoindolin-2-yl)piperidine-2,6-dione]"
7,0.025,"CC1(C)CCC(NCCCCCCCSc2cccc3c2CN(C2CCC(=O)NC2=O)C3=O)CC1 (centres unmarked) [SIAIS1221029, 3-(4-((7-((4,4-dimethylcyclohexyl)amino)heptyl)thio)-1-oxoisoindolin-2-yl)piperidine-2,6-dione]"
8,0.02,"O=C1CCC(N2C(=O)c3cccc(SCCCCCCCNC45CC6CC(CC(C6)C4)C5)c3C2=O)C(=O)N1 (centres unmarked) [SIAIS1221069, 4-((7-((adamantan-1-yl)amino)heptyl)thio)-2-(2,6-dioxopiperidin-3-yl)isoindoline-1,3-dione]"
9,0.072 ± 0.004,"O=C1CCC(N2Cc3c(SCc4ccc(CNC5CCCCC5)cc4)cccc3C2=O)C(=O)N1 (centres unmarked) [SIAIS1221071, 3-(4-((4-((cyclohexylamino)methyl)benzyl)thio)-1-oxoisoindolin-2-yl)piperidine-2,6-dione]"
10,0.027,"CC1(C)[C@@H]2CC[C@@]1(C)[C@@H](NCCCCCSc1cccc3c1CN(C1CCC(=O)NC1=O)C3=O)C2 (stereo partly drawn) [SIAIS1221113, 3-(1-oxo-4-((5-(((1R,2S,4R)-1,7,7-trimethylbicyclo[2.2.1]heptan-2-yl)amino)pentyl)thio)isoindolin-2-yl)piperidine-2,6-dione]"
